Experimental data from US20150250174A1, “USE OF N-THIO-ANTHRANILAMIDE COMPOUNDS ON CULTIVATED PLANTS” (BASF SE, priority 2012, published 2015).

Legend:
Anticarsia gemmatalis [1] = assay: Another test on a non-GM soybean variety (feeding damage); type: in vivo; settings: 12.5 g a.i./ha
Anticarsia gemmatalis [2] = settings: 12.5 g a.i./ha; 5 days after application; GMO soybean BMX Potencia RR
Anticarsia gemmatalis [3] = assay: whole plant or invertebrate; settings: in Glycine max, 48 h, read-out: mortality 2 DAA

CCS(CC)=NC(=O)c1cc(Cl)cc(C)c1NC(=O)c1cc(C(F)(F)F)nn1-c1ncccc1Cl [compound I-11, 2-(3-chloro-2-pyridyl)-N-[2-methyl-4-chloro-6-[(diethyl-λ^4-sulfanylidene)carbamoyl]phenyl]-5-(trifluoromethyl)pyrazole-3-carboxamide]
reduction in feeding damage compared to the untreated controls (Anticarsia gemmatalis [1]): 97% | reduction of feeding damage compared to the untreated controls (Anticarsia gemmatalis [2]): 100% | mortality at 6.25 g/ha (Anticarsia gemmatalis [3]): 83% | mortality at 50 g/ha (Anticarsia gemmatalis [3]): 87%
